# From patent US20220364181A1, “METHOD AND A KIT FOR PREDICTING THE SUSCEPTIBILITY TO STIMULATOR OF INTERFERON GENES (STING) AGONISTS IN A CANCER PATIENT” (China Medical University, priority 2021, published 2022)
# Legend:
# [1] = test system: MC38 cell line; experiment: In vitro assay for susceptibility to STING agonists, ELISA of interferon β, MC38; assay type: cell-based, mouse; details: 100 μg/mL STING agonist, 24 hours
# Procedure: (§1) Two cancer cell lines, the mouse mammary carcinoma cell line EMT6 and the mouse colon adenocarcinoma cell line MC38, were used in the present invention as the models of cell assays.
# (§2) These two cancer cell lines were divided into two groups, one group was treated with cell culture medium, and named as MTAP (+); the other group was treated with siRNA of the S-methyl-5′-thioadenosine phosphorylase (MTAP) for gene knock-out, and named as MTAP(−).
# In the present invention, two cancer cell lines (EMT6 cell line and MC38 cell line) of MTAP (+) and MTAP (−) were stimulated with STING agonists, and then the expression level of Type I Interferon was measured to determine the activity of the STING agonists.
# The STING agonists used in the present invention included MIW815 and E7766, and two cells were divided into six groups, respectively, the MTAP(+) Control Group, the MTAP(−) Control Group, MTAP(+) MIW815 Group, MTAP(+) E7766 Group, MTAP(−) MIW815 Group and MTAP(−) E7766 Group.
# In this assay, after culturing the EMT6 cell line and the MC38 cell line for 12 hours, the medium of the cells in the MTAP(+) STING Group and the MTAP(−) STING Group were replaced with a medium containing 100 μg/mL of STING agonists, and then subjected to stimulation for 24 hours.
# (§3) The cells were harvested, and a portion of the cells was used for enzyme-linked immunosorbent assay (ELISA) to detect the expression level of interferon β (IFN β); the other portion was used for extraction of mRNA with TRizol, and then real-time quantitative reverse transcription polymerase chain reaction (RT-qPCR) was used to amplify its DNA fragments for detecting the gene expression levels of the interferon beta gene (IFNb1) and interferon-stimulated genes MX1 and ISG15.
# [2] = test system: EMT6 cell line; experiment: In vitro assay for susceptibility to STING agonists, ELISA of interferon β, EMT6; assay type: cell-based, mouse; details: EMT6 MTAP(−) cells compared with MTAP(+) cells, 100 μg/mL STING agonist, 24 hours
# Procedure: as §1, §2
# In the present invention, two cancer cell lines (EMT6 cell line and MC38 cell line) of MTAP (+) and MTAP (−) were stimulated with STING agonists, and then the expression level of Type I Interferon was measured to determine the activity of the STING agonists. […]
# as §3
# [3] = test system: EMT6 cell lines; experiment: Animal experiment, tumor size of mice inoculated with EMT6 cell lines; assay type: in vivo
# Procedure: In the present invention, the EMT6 cell lines with expressed MTAP (MTAP(+) Group) and the EMT6 cell lines with no expressed MTAP (MTAP(−) Group) were inoculated into mice for in vivo assays of the activity of STING agonists.
# In this experiment, MIW815 was selected as the STING agonist, and the mice were divided into 4 groups, 5 mice in each group, namely the MTAP(+) Control Group, the MTAP(−) Control Group, the MTAP(+) MIW815 Group and the MTAP(−) MIW815 Group.
# Drugs were administered after the cancer cells grew to be more than 100 mm^3. Phosphate buffered saline solution (PBS) was given to the MTAP(+) Control Group and the MTAP(−) Control Group; and 50 μg of STING agonist MIW815 was given to the MTAP(+) MIW815 Group and the MTAP(−) MIW815 Group at Day 9, 12 and 16.
# [4] = MC38 MTAP(−) cells compared with MTAP(+) cells
structure (smiles),measurement,setting,value
O=[P@]1(S)OC[C@H]2O[C@@H]3[C@H](F)[C@@H]2O[P@](=O)(S)OC[C@H]2O[C@H]([C@H](F)[C@@H]2O1)n1cnc2c(ncnc21)NC/C=C/CNc1ncnc2c1ncn23 [E7766],"expression of interferon β (IFN β), ELISA",[1]; MC38 MTAP(+) cells,effectively stimulated the expression of IFN 13
same,"expression of interferon β (IFN β), ELISA",[1]; [4],significantly lower
same,"expression of interferon β (IFN β), ELISA",[2],significantly lower
Nc1ncnc2c1ncn2[C@@H]1O[C@@H]2COP(=O)([S-])O[C@@H]3[C@H](O)[C@@H](COP([O-])(=S)O[C@H]2[C@H]1O)O[C@H]3n1cnc2c(N)ncnc21.[Na+].[Na+] (some centres unmarked) [MIW815],tumor size,"[3]; EMT6 MTAP(+) tumors, 50 μg at Day 9, 12 and 16, compared with MTAP(+) Control Group (PBS)",significantly smaller
same,tumor size,"[3]; EMT6 MTAP(−) tumors, 50 μg at Day 9, 12 and 16, compared with MTAP(−) Control Group (PBS)",not statistically different
same,"expression of interferon β (IFN β), ELISA",[1]; MC38 MTAP(+) cells,effectively stimulated the expression of IFN 13
same,"expression of interferon β (IFN β), ELISA",[1]; [4],significantly lower
same,"expression of interferon β (IFN β), ELISA",[2],significantly lower
